What was measured:
Amaranthus retroflexus = assay: Pot test, herbicide sprayed on the soil surface after planting one-node stem cuttings: herbicidal efficacy; assay type: in vivo; details: Example 5; cuttings treated with strobilurin fungicides (kresoxim-methyl, azoxystrobin etc.); soil surface spray on day of planting; four weeks after application
Description: (§1) Stem cuttings of sugar cane, 30 cm to 40 cm long, are placed in wet soil to stimulate germination. Stem cuttings on which a bud grows to about 1 cm long are selected and the stem cuttings are cut to have one node and a length of 3 cm. Plastic pots are filled with soil and Amaranthus retroflexus is seeded therein. The stem cuttings of sugar cane are planted in the soil in the pots at a depth of 2 cm. […] The test pots are then placed in a greenhouse.
(§2) The herbicidal efficacy and phytotoxicity are determined four weeks after the application of the herbicides.
as §1, with “3 cm. The stem cuttings are treated with clothianidin, thiamethoxam, imidacloprid, dinotefuran, nitenpyram, acetamiprid, or thiacloprid. Plastic pots” for “3 cm. Plastic pots”, “sugar cane treated with the pesticides are planted” for “sugar cane are planted”
(§3) Stem cuttings of sugar cane, 30 cm to 40 cm long, are placed in wet soil to stimulate germination. Stem cuttings on which a bud grows to about 1 cm long are selected and the stem cuttings are cut to have one node and a length of 3 cm. The stem cuttings are treated with kresoxim-methyl, azoxystrobin, trifloxystrobin, fluoxastrobin, picoxystrobin, pyraclostrobin, dimoxystrobin, pyribencarb, metominostrobin, orysastrobin, enestrobin, pyraoxystrobin, or pyrametostrobin. Plastic pots are filled with soil and Amaranthus retroflexus is seeded therein. The stem cuttings of sugar cane treated with the fungicides are planted in the soil in the pots at a depth of 2 cm. […] The test pots are then placed in a greenhouse. The herbicidal efficacy and phytotoxicity are determined four weeks after the application of the herbicides.
Stem cuttings of sugar cane, 30 cm to 40 cm long, are placed in wet soil to stimulate germination. Stem cuttings on which a bud grows to about 1 cm long are selected and the stem cuttings are cut to have one node and a length of 3 cm. The stem cuttings are treated with azaconazole, bitertanol, bromuconazole, cyproconazole, difenoconazole, diniconazole, epoxiconazole, fenbuconazole, fluquinoconazole, flusilazole, flutriafol, hexaconazole, imibenconazole, ipconazole, metconazole, myclobutanil, penconazole, propiconazole, prothioconazole, simeconazole, tebuconazole, tetraconazole, triadimenol, triticonazole, fenarimol, nuarimol, pyrifenox, imazalil, oxpoconazole fumarate, peforazoate, prochloraz, or triflumizole. Plastic pots are filled with soil and Amaranthus retroflexus is seeded therein. The stem cuttings of sugar cane treated with the fungicides are planted in the soil in the pots at a depth of 2 cm. […] The test pots are then placed in a greenhouse. […]

sugar cane = assay: Pot test, herbicide sprayed on the soil surface after planting one-node stem cuttings: phytotoxicity
Description: as §1, §2
as §1, with “3 cm. The stem cuttings are treated with clothianidin, thiamethoxam, imidacloprid, dinotefuran, nitenpyram, acetamiprid, or thiacloprid. Plastic pots” for “3 cm. Plastic pots”, “sugar cane treated with the pesticides are planted” for “sugar cane are planted”
as §3
Stem cuttings of sugar cane, 30 cm to 40 cm long, are placed in wet soil to stimulate germination. Stem cuttings on which a bud grows to about 1 cm long are selected and the stem cuttings are cut to have one node and a length of 3 cm. The stem cuttings are treated with azaconazole, bitertanol, bromuconazole, cyproconazole, difenoconazole, diniconazole, epoxiconazole, fenbuconazole, fluquinoconazole, flusilazole, flutriafol, hexaconazole, imibenconazole, ipconazole, metconazole, myclobutanil, penconazole, propiconazole, prothioconazole, simeconazole, tebuconazole, tetraconazole, triadimenol, triticonazole, fenarimol, nuarimol, pyrifenox, imazalil, oxpoconazole fumarate, peforazoate, prochloraz, or triflumizole. Plastic pots are filled with soil and Amaranthus retroflexus is seeded therein. The stem cuttings of sugar cane treated with the fungicides are planted in the soil in the pots at a depth of 2 cm. […] The test pots are then placed in a greenhouse.
as §1, with “3 cm. The stem cuttings are treated with metalaxyl or metalaxyl-M. Plastic pots” for “3 cm. Plastic pots”

[1] = Example 5, cuttings treated with strobilurin fungicides (kresoxim-methyl, azoxystrobin etc.), soil surface spray on day of planting, four weeks after application

Molecule | herbicidal efficacy (Amaranthus retroflexus) | phytotoxicity (sugar cane; [1]) | phytotoxicity (sugar cane; in vivo)
CCc1cccc(C)c1N(C(=O)CCl)[C@@H](C)COC [S-metolachlor] | the control effect against the weed can be observed | no phytotoxicity problematic to sugar cane is observed | 
CCc1cccc(CC)c1N(COC)C(=O)CCl [alachlor] | the control effect against the weed can be observed | no phytotoxicity problematic to sugar cane is observed | 
CCNc1nc(NC(C)C)nc(SC)n1 [ametryn] | the control effect against the weed can be observed |  | no phytotoxicity problematic to sugar cane is observed
CC(C)c1nn(C(=O)NC(C)(C)C)c(=O)n1N [amicarbazone] | the control effect against the weed can be observed | no phytotoxicity problematic to sugar cane is observed | 
CCNc1nc(Cl)nc(NC(C)C)n1 [atrazine] | the control effect against the weed can be observed | no phytotoxicity problematic to sugar cane is observed | 
CC1(C)CON(Cc2ccccc2Cl)C1=O [clomazon] | the control effect against the weed can be observed |  | 
COc1c(Cl)ccc(Cl)c1C(=O)O.NCCOCCO [dicamba-diglycolamine] | the control effect against the weed can be observed | no phytotoxicity problematic to sugar cane is observed | 
CNC.COc1c(Cl)ccc(Cl)c1C(=O)O [dicamba-dimethylamine] | the control effect against the weed can be observed | no phytotoxicity problematic to sugar cane is observed | 
COc1c(Cl)ccc(Cl)c1C(=O)[O-].[K+] [dicamba-potassium] | the control effect against the weed can be observed | no phytotoxicity problematic to sugar cane is observed | 
COc1c(Cl)ccc(Cl)c1C(=O)[O-].[Na+] [dicamba-sodium] | the control effect against the weed can be observed | no phytotoxicity problematic to sugar cane is observed | 
COc1c(Cl)ccc(Cl)c1C(=O)O [dicamba] | the control effect against the weed can be observed | no phytotoxicity problematic to sugar cane is observed | 
CN(C)C(=O)Nc1ccc(Cl)c(Cl)c1 [diuron] | the control effect against the weed can be observed | no phytotoxicity problematic to sugar cane is observed | 
CCOc1ccccc1OS(=O)(=O)NC(=O)Nc1nc(OC)cc(OC)n1 [ethoxysulfuron] | the control effect against the weed can be observed |  | no phytotoxicity problematic to sugar cane is observed
COC(=O)c1c(Cl)nn(C)c1S(=O)(=O)NC(=O)Nc1nc(OC)cc(OC)n1 [halosulfuron-methyl] | the control effect against the weed can be observed | no phytotoxicity problematic to sugar cane is observed | 
CN(C)c1nc(=O)n(C2CCCCC2)c(=O)n1C [hexazinone] | the control effect against the weed can be observed |  | no phytotoxicity problematic to sugar cane is observed
Cc1cnc(C2=NC(=O)C(C)(C(C)C)N2)c(C(=O)O)c1 (centres unmarked) [imazapic] | the control effect against the weed can be observed |  | no phytotoxicity problematic to sugar cane is observed
COC(=O)c1ccc(I)cc1S(=O)(=O)[N-]C(=O)Nc1nc(C)nc(OC)n1.[Na+] [iodosulfuron-methyl-sodium] | the control effect against the weed can be observed | no phytotoxicity problematic to sugar cane is observed | 
CS(=O)(=O)c1cc(C(F)(F)F)ccc1C(=O)c1cnoc1C1CC1 [isoxaflutole] | the control effect against the weed can be observed |  | no phytotoxicity problematic to sugar cane is observed
CS(=O)(=O)c1ccc(C(=O)C2C(=O)CCCC2=O)c([N+](=O)[O-])c1 [mesotrione] | the control effect against the weed can be observed | no phytotoxicity problematic to sugar cane is observed | 
CCc1cccc(C)c1N(C(=O)CCl)C(C)COC (centres unmarked) [metolachlor] | the control effect against the weed can be observed | no phytotoxicity problematic to sugar cane is observed | 
CSc1nnc(C(C)(C)C)c(=O)n1N [metribuzin] | the control effect against the weed can be observed | no phytotoxicity problematic to sugar cane is observed | 
CCC(CC)Nc1c([N+](=O)[O-])cc(C)c(C)c1[N+](=O)[O-] [pendimethalin] | the control effect against the weed can be observed | no phytotoxicity problematic to sugar cane is observed | 
CCNc1nc(Cl)nc(NCC)n1 [simazine] | the control effect against the weed can be observed | no phytotoxicity problematic to sugar cane is observed | 
CNC(=O)N(C)c1nnc(C(C)(C)C)s1 [tebuthiuron] | the control effect against the weed can be observed | no phytotoxicity problematic to sugar cane is observed | 
COc1cc(OC)nc(NC(=O)[N-]S(=O)(=O)c2ncccc2OCC(F)(F)F)n1.[Na+] [trifloxysulfuron-sodium] | the control effect against the weed can be observed | no phytotoxicity problematic to sugar cane is observed | 
CCCN(CCC)c1c([N+](=O)[O-])cc(C(F)(F)F)cc1[N+](=O)[O-] [trifluralin] | the control effect against the weed can be observed | no phytotoxicity problematic to sugar cane is observed | 
bicyclopyrone | the control effect against the weed can be observed | no phytotoxicity problematic to sugar cane is observed | 
